Test results from ChEMBL document CHEMBL1138551, “Antimicrobial studies of some novel quinazolinones fused with [1,2,4]-triazole, [1,2,4]-triazine and [1,2,4,5]-tetrazine rings” (2009).
Converted amounts (≈) assume the structure as drawn.

How the values were obtained:
Assay type in all cases: functional
[1] = system: Escherichia coli; test: Antibacterial activity against Escherichia coli after 24 hrs by disk diffusion method
[2] = system: Aspergillus flavus; test: Antifungal activity against Aspergillus flavus after 26 hrs by serial plate dilution method
[3] = system: Pseudomonas aeruginosa; test: Antibacterial activity against Pseudomonas aeruginosa after 24 hrs by disk diffusion method
[4] = system: Streptococcus pneumoniae; test: Antibacterial activity against Streptococcus pneumoniae after 24 hrs by disk diffusion method
[5] = system: Aspergillus fumigatus; test: Antifungal activity against Aspergillus fumigatus after 26 hrs by serial plate dilution method
[6] = system: Candida albicans; test: Antifungal activity against Candida albicans after 26 hrs by serial plate dilution method
[7] = system: Bacillus subtilis; test: Antibacterial activity against Bacillus subtilis after 24 hrs by disk diffusion method
[8] = system: Aspergillus niger; test: Antifungal activity against Aspergillus niger after 26 hrs by serial plate dilution method

## Cc1ccccc1-c1nnc2n(-c3ccc(Cl)cc3)c(=O)c3ccccc3n12
[1]
  MIC: 12.5 µg/mL (≈ 32.3 µM)
[2]
  MIC: 3.12 µg/mL (≈ 8.07 µM)
[3]
  MIC: 25 µg/mL (≈ 64.6 µM)
[4]
  MIC: 25 µg/mL (≈ 64.6 µM)
[5]
  MIC: 12.5 µg/mL (≈ 32.3 µM)
[6]
  MIC: 6.25 µg/mL (≈ 16.2 µM)
[7]
  MIC: 12.5 µg/mL (≈ 32.3 µM)
[8]
  MIC: 12.5 µg/mL (≈ 32.3 µM)

## Cc1ccc(-n2c(=O)c3ccccc3n3c(-c4ccccc4Cl)nnc23)cc1
[1]
  MIC: 12.5 µg/mL (≈ 32.3 µM)
[2]
  MIC: 50 µg/mL (≈ 129 µM)
[3]
  MIC: 6.25 µg/mL (≈ 16.2 µM)
[4]
  MIC: 12.5 µg/mL (≈ 32.3 µM)
[5]
  MIC: 25 µg/mL (≈ 64.6 µM)
[6]
  MIC: 12.5 µg/mL (≈ 32.3 µM)
[7]
  MIC: 25 µg/mL (≈ 64.6 µM)
[8]
  MIC: 6.25 µg/mL (≈ 16.2 µM)

## Cc1ccc(-n2c(=O)c3ccccc3n3c(-c4ccccc4C)nnc23)cc1
[1]
  MIC: 25 µg/mL (≈ 68.2 µM)
[2]
  MIC: 50 µg/mL (≈ 136 µM)
[3]
  MIC: > 50 µg/mL
[4]
  MIC: 25 µg/mL (≈ 68.2 µM)
[5]
  MIC: 12.5 µg/mL (≈ 34.1 µM)
[6]
  MIC: 25 µg/mL (≈ 68.2 µM)
[7]
  MIC: > 50 µg/mL
[8]
  MIC: 12.5 µg/mL (≈ 34.1 µM)

## O=c1c2ccccc2n2c(-c3ccccc3Cl)nnc2n1-c1ccccc1
[1]
  MIC: 12.5 µg/mL (≈ 33.5 µM)
[2]
  MIC: 12.5 µg/mL (≈ 33.5 µM)
[3]
  MIC: 6.25 µg/mL (≈ 16.8 µM)
[4]
  MIC: 25 µg/mL (≈ 67.1 µM)
[5]
  MIC: 50 µg/mL (≈ 134 µM)
[6]
  MIC: 25 µg/mL (≈ 67.1 µM)
[7]
  MIC: 50 µg/mL (≈ 134 µM)
[8]
  MIC: 6.25 µg/mL (≈ 16.8 µM)

## COc1ccc(-n2c(=O)c3ccccc3n3c(-c4ccccc4Cl)nnc23)cc1
[1]
  MIC: 3.12 µg/mL (≈ 7.74 µM)
[2]
  MIC: 3.12 µg/mL (≈ 7.74 µM)
[3]
  MIC: 1.56 µg/mL (≈ 3.87 µM)
[4]
  MIC: 6.25 µg/mL (≈ 15.5 µM)
[5]
  MIC: 3.12 µg/mL (≈ 7.74 µM)
[6]
  MIC: 6.25 µg/mL (≈ 15.5 µM)
[7]
  MIC: 3.12 µg/mL (≈ 7.74 µM)
[8]
  MIC: 1.56 µg/mL (≈ 3.87 µM)

## Cc1ccc(N2C(=S)NN=C3N(c4ccccc4)C(=O)c4ccccc4N32)cc1
[1]
  MIC: 50 µg/mL (≈ 125 µM)
[2]
  MIC: 12.5 µg/mL (≈ 31.3 µM)
[3]
  MIC: 50 µg/mL (≈ 125 µM)
[4]
  MIC: 25 µg/mL (≈ 62.6 µM)
[5]
  MIC: 25 µg/mL (≈ 62.6 µM)
[6]
  MIC: > 50 µg/mL
[7]
  MIC: 50 µg/mL (≈ 125 µM)
[8]
  MIC: 25 µg/mL (≈ 62.6 µM)

## O=c1c2ccccc2n2c3nc4ccccc4c-3nnc2n1-c1ccccc1
[1]
  MIC: 50 µg/mL (≈ 138 µM)
[2]
  MIC: 25 µg/mL (≈ 68.8 µM)
[3]
  MIC: 25 µg/mL (≈ 68.8 µM)
[4]
  MIC: > 50 µg/mL
[5]
  MIC: 25 µg/mL (≈ 68.8 µM)
[6]
  MIC: > 50 µg/mL
[7]
  MIC: 50 µg/mL (≈ 138 µM)
[8]
  MIC: > 50 µg/mL

## O=c1c2ccccc2n2c(-c3ccccc3Cl)nnc2n1-c1ccc(Cl)cc1
[1]
  MIC: 1.56 µg/mL (≈ 3.83 µM)
[2]
  MIC: 6.25 µg/mL (≈ 15.3 µM)
[3]
  MIC: 3.12 µg/mL (≈ 7.66 µM)
[4]
  MIC: 3.12 µg/mL (≈ 7.66 µM)
[5]
  MIC: 3.12 µg/mL (≈ 7.66 µM)
[6]
  MIC: 1.56 µg/mL (≈ 3.83 µM)
[7]
  MIC: 1.56 µg/mL (≈ 3.83 µM)
[8]
  MIC: 1.56 µg/mL (≈ 3.83 µM)

## O=c1c2ccccc2n2c3nc4ccccc4c-3nnc2n1-c1ccc(Cl)cc1
[1]
  MIC: 3.12 µg/mL (≈ 7.84 µM)
[2]
  MIC: 3.12 µg/mL (≈ 7.84 µM)
[3]
  MIC: 3.12 µg/mL (≈ 7.84 µM)
[4]
  MIC: 1.56 µg/mL (≈ 3.92 µM)
[5]
  MIC: 6.25 µg/mL (≈ 15.7 µM)
[6]
  MIC: 3.12 µg/mL (≈ 7.84 µM)
[7]
  MIC: 6.25 µg/mL (≈ 15.7 µM)
[8]
  MIC: 1.56 µg/mL (≈ 3.92 µM)

## Cc1ccc(N2C(=O)c3ccccc3N3C2=NNC(=S)N3c2ccc(C)cc2)cc1
[1]
  MIC: 25 µg/mL (≈ 60.5 µM)
[2]
  MIC: 12.5 µg/mL (≈ 30.2 µM)
[3]
  MIC: 50 µg/mL (≈ 121 µM)
[4]
  MIC: 50 µg/mL (≈ 121 µM)
[5]
  MIC: 50 µg/mL (≈ 121 µM)
[6]
  MIC: 25 µg/mL (≈ 60.5 µM)
[7]
  MIC: 25 µg/mL (≈ 60.5 µM)
[8]
  MIC: 25 µg/mL (≈ 60.5 µM)

## O=C(O)c1cn(C2CC2)c2cc(N3CCNCC3)c(F)cc2c1=O [CIPROFLOXACIN]
[3]
  MIC: 3.12 µg/mL (≈ 9.42 µM)
[4]
  MIC: 6.25 µg/mL (≈ 18.9 µM)
[7]
  MIC: 1.56 µg/mL (≈ 4.71 µM)

## OC(Cn1cncn1)(Cn1cncn1)c1ccc(F)cc1F [FLUCONAZOLE]
[2]
  MIC: 3.12 µg/mL (≈ 10.2 µM)
[5]
  MIC: 6.25 µg/mL (≈ 20.4 µM)
[6]
  MIC: 1.56 µg/mL (≈ 5.09 µM)
[8]
  MIC: 1.56 µg/mL (≈ 5.09 µM)
